Results reported in US12516022B2, “Derivatives of aryl hydrocarbon receptor agonists” (AZORA THERAPEUTICS, INC., priority 2021, dated 2026).

Key:
[1] = Stability of indirubin prodrugs in simulated fluids (FaSSIF, FaSSGF), 24 h at 37° C., UPLC-MS; type: physicochemical
Procedure: 10.41 g fasted state simulated intestinal fluid (FaSSIF) buffer concentrate was dissolved in 240.3 g deionized water and 560 mg FaSSIF powder added. The mixture was stirred until complete dissolution observed. The test compound (approx. 1-3 mg) was placed in 5.00 mL of FaSSIF solution. Samples of the solution with the test compound were taken after 24 hours in at 37° C. (oven-controlled temperature).
36.78 g fasted state simulated gastric fluid (FaSSGF) buffer concentrate was dissolved in 961.9 g deionized water and 60 mg FaSSGF powder added. The mixture was stirred until complete dissolution observed. The test compound (approx. 1-3 mg) was placed in 5.00 mL of FaSSGF solution. Samples of the solution with the test compound were taken after 24 hours in at 37° C. (oven-controlled temperature).
UPLC-MS analysis of the samples taken at 24 hours was carried out on a Waters Acquity UPLC system consisting of an Acquity I-Class Sample Manager-FL, Acquity I-Class Binary Solvent Manager and an Acquity UPLC Column Manager. UV detection was afforded using an Acquity UPLC PDA detector (scanning from 210 to 400 nm), whilst mass detection was achieved using an Acquity QDa detector (mass scanning from 100-1250 Da; positive and negative modes simultaneously), and ELS detection was achieved using an Acquity UPLC ELS Detector. A Waters Acquity UPLC BEH C18 column (2.1 Å˜50 mm, […]) was used to separate the analytes. Samples were prepared by dissolution (with or without sonication) into 1 mL of 50% (v/v) MeCN in water. The resulting solutions were then filtered through a […] syringe filter before submitting for analysis. All of the solvents, including formic acid and 36% ammonia solution, were purchased as the HPLC grade.

[2] = Time course of conversion to indirubin in FaSSIF at 37° C.;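 on all read-outs here: test compound, about 1-3 mg in 5 mL FaSSIF, sampled and analysed by UPLC-MS with PDA UV (210-400 nm), QDa mass and evaporative light scattering detection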; type: physicochemical; details: for Conversion to indirubin: over a 24 hour period

Row | Compound | Fraction (percent) of indirubin ([1]; FaSSGF 37° C. 24 h) | Fraction (percent) of starting material (SM) ([1]; FaSSGF 37° C. 24 h) | Fraction (percent) of indirubin ([1]; FaSSIF 37° C. 24 h) | Fraction (percent) of starting material (SM) ([1]; FaSSIF 37° C. 24 h) | indirubin ([2]; FaSSIF 37° C. 24 h) | indirubin methylene alcohol ([2]; FaSSIF 37° C. 24 h) | starting material (prodrug compound) ([2]; FaSSIF 37° C. 24 h) | indirubin ([2]; FaSSIF 37° C., 15 min) | indirubin methylene alcohol ([2]; FaSSIF 37° C., 15 min) | starting material (prodrug compound) ([2]; FaSSIF 37° C., 15 min) | indirubin ([2]; FaSSIF 37° C., 30 min) | indirubin methylene alcohol ([2]; FaSSIF 37° C., 30 min) | starting material (prodrug compound) ([2]; FaSSIF 37° C., 30 min) | indirubin ([2]; FaSSIF 37° C., 1 h) | indirubin methylene alcohol ([2]; FaSSIF 37° C., 1 h) | starting material (prodrug compound) ([2]; FaSSIF 37° C., 1 h) | indirubin ([2]; FaSSIF 37° C., 2 h) | indirubin methylene alcohol ([2]; FaSSIF 37° C., 2 h) | starting material (prodrug compound) ([2]; FaSSIF 37° C., 2 h) | Conversion to indirubin ([2]; FaSSIF 37° C.)
1 | CN(C)CCCNC(=O)N1C(=O)/C(=C2\Nc3ccccc3C2=O)c2ccccc21 | 0% | 100% | 1% | 94% |  |  |  |  |  |  |  |  |  |  |  |  |  |  |  | 
2 | CCCCCCCCCCC(=O)N1C(=O)/C(=C2\Nc3ccccc3C2=O)c2ccccc21 | 0% | 100% | 0% | 100% |  |  |  |  |  |  |  |  |  |  |  |  |  |  |  | 
3 | O=C1/C(=C2/C(=O)N(C(=O)CCCN3CCOCC3)c3ccccc32)Nc2ccccc21 | 0% | 100% | 0% | 100% |  |  |  |  |  |  |  |  |  |  |  |  |  |  |  | 
4 | O=C1Nc2ccccc2/C1=C1/Nc2ccccc2/C1=N\O | 0% | 100% | 0% | 100% |  |  |  |  |  |  |  |  |  |  |  |  |  |  |  | 
5 | COCN1C(=O)/C(=C2\Nc3ccccc3C2=O)c2ccccc21 | 2% | 100% | 2% | 91% |  |  |  |  |  |  |  |  |  |  |  |  |  |  |  | 
6 | CCOC(=O)N1C(=O)/C(=C2\Nc3ccccc3C2=O)c2ccccc21 | 0% | 100% | 0% | 100% |  |  |  |  |  |  |  |  |  |  |  |  |  |  |  | 
7 | CCOC(=O)CCC(=O)N1C(=O)/C(=C2\Nc3ccccc3C2=O)c2ccccc21 | 0% | 100% | 0% | 100% |  |  |  |  |  |  |  |  |  |  |  |  |  |  |  | 
8 | O=C1/C(=C2/C(=O)N(COc3ccccc3)c3ccccc32)Nc2ccccc21 | 0% | 100% | 0% | 100% |  |  |  |  |  |  |  |  |  |  |  |  |  |  |  | 
9 | O=C1/C(=C2/C(=O)N(C(=O)NCCNS(=O)(=O)C(F)(F)F)c3ccccc32)Nc2ccccc21 | 1% | 93% | 0% | 100% |  |  |  |  |  |  |  |  |  |  |  |  |  |  |  | 
10 | Cl.NCCCNC(=O)N1C(=O)/C(=C2\Nc3ccccc3C2=O)c2ccccc21 | 7% | 86% | 0% | 100% |  |  |  |  |  |  |  |  |  |  |  |  |  |  |  | 
11 | CC(=O)NCCNC(=O)N1C(=O)/C(=C2\Nc3ccccc3C2=O)c2ccccc21 | 0% | 100% | 0% | 100% |  |  |  |  |  |  |  |  |  |  |  |  |  |  |  | 
12 | C=CCOC(=O)N1C(=O)/C(=C2\Nc3ccccc3C2=O)c2ccccc21 | 0% | 100% | 2% | 88% |  |  |  |  |  |  |  |  |  |  |  |  |  |  |  | 
13 | O=C1/C(=C2/C(=O)N(CN3CCC(F)(F)CC3)c3ccccc32)Nc2ccccc21 [drawing 260] |  |  |  |  | 40% | 0% | 52% | 45% | 0% | 54% | 29% | 0% | 39% | 18% | 0% | 37% | 49% | 0% | 51% | 20-40%
14 | CNCCNC(=O)N1C(=O)/C(=C2\Nc3ccccc3C2=O)c2ccccc21.Cl [drawing 264] |  |  |  |  | 0% | 0% | 100% | 0% | 0% | 100% | 0% | 0% | 100% | 0% | 0% | 100% | 0% | 0% | 100% | 0-20%
15 | CCN(CC)CN1C(=O)/C(=C2\Nc3ccccc3C2=O)c2ccccc21 [drawing 252] |  |  |  |  | 100% | 0% | 0% | 100% | 0% | 0% | 100% | 0% | 0% | 100% | 0% | 0% | 100% | 0% | 0% | 80-100%
16 | O=C1/C(=C2/C(=O)N(CN3CCC3)c3ccccc32)Nc2ccccc21 [drawing 266] |  |  |  |  | 20% | 7% | 62% | 9% | 5% | 72% | 8% | 5% | 79% | 10% | 5% | 80% | 13% | 4% | 75% | 0-20%
17 | O=C1/C(=C2/C(=O)N(C(=O)NC3CCOCC3)c3ccccc32)Nc2ccccc21 [drawing 263] |  |  |  |  | 6% | 0% | 55% | 8% | 0% | 50% | 5% | 0% | 44% | 5% | 0% | 33% | 10% | 1% | 50% | 0-20%
18 | O=C1/C(=C2/C(=O)N(CN3CCOCC3)c3ccccc32)Nc2ccccc21 [drawing 261] |  |  |  |  | 24% | 7% | 46% | 5% | 0% | 69% | 8% | 3% | 80% | 6% | 0% | 64% | 7% | 4% | 65% | 20-40%
